In this test the target is T1, β-secretase (BACE) (Homo sapiens, UniProt P56817).
T1 construct: purchased Panvera
The experiment in a line: BACE FS1 % Inhibition Assay. The format is biochemical. A digest of the protocol:
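Percent inhibition per compound concentration was referenced to vehicle-treated enzyme and no-enzyme wells. Enzyme at a 4 μg/mL working stock plus compound was mixed for 20 min at room temperature before the FS1 substrate (300 μg/mL working stock) was added for a 1 h room-temperature reaction.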

Consider 17 compounds from patent US8426429B2, “2-amino-quinazoline derivatives useful as inhibitors of β-secretase (BACE)” (Jansssen Pharmaceutica N.V., priority 2004, dated 2013).

T1 sequence (P56817 46-501): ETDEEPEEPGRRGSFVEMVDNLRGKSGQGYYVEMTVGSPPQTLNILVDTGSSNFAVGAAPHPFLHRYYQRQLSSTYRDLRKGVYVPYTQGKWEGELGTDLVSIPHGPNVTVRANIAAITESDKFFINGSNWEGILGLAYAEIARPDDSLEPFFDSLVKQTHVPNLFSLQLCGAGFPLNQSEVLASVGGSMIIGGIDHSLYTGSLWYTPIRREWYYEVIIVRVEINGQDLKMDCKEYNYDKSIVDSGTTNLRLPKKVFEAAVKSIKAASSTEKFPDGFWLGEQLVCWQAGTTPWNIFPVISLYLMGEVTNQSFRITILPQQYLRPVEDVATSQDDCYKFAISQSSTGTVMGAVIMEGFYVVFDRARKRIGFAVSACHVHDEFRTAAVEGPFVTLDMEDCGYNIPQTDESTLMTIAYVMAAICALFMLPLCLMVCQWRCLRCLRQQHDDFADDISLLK

On to `NC1=Nc2ccc(-c3ccccc3-c3ccccc3)cc2CN1CCNC(=O)C1CCCCC1` [Compound 544], for which the “% Inhibition (FS)” value by setting is: (0.3 μM test compound) 32%; (1 μM test compound) less than 30%; (3 μM test compound) 51%.
With `CCCC(CCC(=O)NC1CCCCC1)N1Cc2cc(Oc3ccccc3)ccc2N=C1N` (stereo not drawn) [Compound 129], the “% Inhibition (FS)” value (3 μM test compound) was 113% and the “% Inhibition (FS)” value (10 μM test compound) came to 113%.
Take `CCCC=Cc1ccc2c(c1)CN(CCNC(=O)CCC)C(N)=N2` [Compound 571]: the “% Inhibition (FS)” value (0.3 μM test compound) is reported as less than 30%, the “% Inhibition (FS)” value (1 μM test compound) is reported as less than 30% and the “% Inhibition (FS)” value (3 μM test compound) is listed as less than 30%.
In the case of `NC1=Nc2ccc(Oc3ccccc3)cc2CN1CCNC(=O)C(c1ccccc1)c1ccccc1` [Compound 207], the “% Inhibition (FS)” value was 48% (0.3 μM test compound), 90% (1 μM test compound) and 108% (3 μM test compound).
The like results for `CC(=O)Nc1ccccc1-c1ccc2c(c1)CN(CCNC(=O)C1CCCCC1)C(N)=N2` [Compound 541] were, in that order, less than 30%, less than 30% and less than 30%.
Take `NC1=Nc2ccc(-c3ccc(F)cc3)cc2CN1CCNC(=O)C1CCCCC1` [Compound 623]: the “% Inhibition (FS)” value (0.3 μM test compound) is on record as less than 30%; the “% Inhibition (FS)” value (1 μM test compound, 1 µM) was less than 30%; the “% Inhibition (FS)” value (3 μM test compound, 3 µM) came to 82%.
As to `CN(C)Cc1ccccc1-c1ccc2c(c1)CN(Cc1cccc(C(=O)N(C)C3CCCCC3)c1)C(N)=N2` [Compound 172], the “% Inhibition (FS)” value by setting is: (0.3 μM test compound) less than 30%; (1 μM test compound) less than 30%; (3 μM test compound) less than 30%.
Take `NC1=Nc2ccc(Oc3ccccc3)cc2CN1C(CCCC(=O)N1CCCCC1)CCC(=O)N1CCCCC1` (stereo not drawn) [Compound 452]: the “% Inhibition (FS)” value is recorded as less than 30% (0.3 μM test compound), 42% (1 μM test compound) and 78% (3 μM test compound).
For `CC(C)(C)NS(=O)(=O)c1ccccc1-c1ccc2c(c1)CN(CCNC(=O)C1CCCCC1)C(N)=N2` [Compound 542], the “% Inhibition (FS)” value (0.3 μM test compound) is reported as less than 30%, the “% Inhibition (FS)” value (1 μM test compound) was less than 30% and the “% Inhibition (FS)” value (3 μM test compound) worked out at 73%.
For `COc1ccccc1-c1ccc2c(c1)CN([C@@H](CCC(=O)N(C)Cc1cc(C)no1)C1CCCCC1)C(N)=N2` [Compound 718], the “% Inhibition (FS)” value is recorded as less than 30% (0.3 μM compound, FS1 substrate) and 30% (1 μM compound, FS1 substrate).
As to `COc1ccc(-c2nc3ccccc3s2)c(Oc2ccc3c(c2)CN(Cc2cccc(C(=O)N(C)C4CCCCC4)c2)C(N)=N3)c1` [Compound 469], the “% Inhibition (FS)” value reads like this: (0.3 μM test compound) less than 30%; (1 μM test compound) less than 30%; (3 μM test compound) less than 30%.
As to `CN(C(=O)c1cccc(CN2Cc3cc(Oc4ccc5c(c4)CCCC5)ccc3N=C2N)c1)C1CCCCC1` [Compound 233], the “% Inhibition (FS)” value is, setting by setting: (0.3 μM test compound) less than 30%; (1 μM test compound) 32%; (3 μM test compound) 36%.
Regarding `CN(C(=O)c1ccc2c(c1)C(N1Cc3cc(Oc4ccccc4)ccc3N=C1N)CC2)C1CCCCC1` (stereo not drawn) [Compound 145], the “% Inhibition (FS)” value runs as follows: (3 μM test compound) less than 30%; (10 μM test compound) 37%.
With `NC1=Nc2ccc(Oc3ccccc3)cc2CN1CC1CCN(C(=O)C2CCCCC2)CC1` [Compound 525], the “% Inhibition (FS)” value (0.3 μM test compound) is reported as less than 30%, the “% Inhibition (FS)” value (1 μM test compound) was less than 30% and the “% Inhibition (FS)” value (3 μM test compound) is on record as 70%.
On to `CC(C)c1ccc(Sc2ccc3c(c2)CN(Cc2cccc(C(=O)N(C)C4CCCCC4)c2)C(N)=N3)cc1` [Compound 407], for which the “% Inhibition (FS)” value runs as follows: (0.3 μM test compound) less than 30%; (1 μM test compound) less than 30%; (3 μM test compound) 48%.
As to `CCCC=Cc1ccc2c(c1)CN(CCNC(=O)Cc1ccccc1)C(N)=N2` [Compound 596], the “% Inhibition (FS)” value runs as follows: (0.3 μM test compound) less than 30%; (1 μM test compound) less than 30%; (3 μM test compound) less than 30%.
For the compound `CN(C(=O)CCC(C1CCCCC1)N1Cc2cc(Oc3ccccc3)ccc2N=C1N)C1CCC(O)CC1` (stereo not drawn) [Compound 639], the “% Inhibition (FS)” value by setting is: (0.3 μM test compound) less than 30%; (1 μM test compound) less than 30%; (3 μM test compound) 48%.
